Assay results: patent EP0155872A1, “Process for reducing the lignin content of plants, and compositions for putting it into use” (priority 1984, dated 1985)
Several values for one entry are separate records, joined by “and”; a condition that tells them apart may be missing. Identical values can stand only once.

What was measured:
plants de maïs [1] = assay: Cell-wall polysaccharide content of treated maize plants; format: in vivo; conditions: plants âgés de 30 jours; 80 µM
Description: (§1) Les différentes études dont les résultats sont rapportés ci-après ont été réalisées à partir de plants de mais âgés de 30 jours et traités par l'OHPAS et le NH2PAS à la concentration de 80 µM.
Le dosage de l'ensemble des polysaccharides pariétaux mais également de la fraction cellulosique n'a révélé aucune différence significative entre les plants témoins et les plants traités.

plants de luzerne = assay: Lignin content of 30-day alfalfa plants; format: in vivo; conditions: plants de luzerne de 30 jours
Text: 6) Effets des inhibiteurs sur la teneur en lignines de plants de luzerne de 30 jours : • Le protocole est le même que celui décrit pour les plants de mais.
On rapporte dans le tableau 7 ci-après les pourcentages d'inhibition obtenus en fonction de la concentration en produit.

plants de mais [2] = assay: Primary metabolism of treated maize plants (soluble proteins, chlorophylls, nucleic acids); format: in vivo; conditions: plants âgés de 30 jours; 80 µM
Description: as §1
Afin d'estimer l'action de l'OHPAS et du NH2PAS sur le métabolisme primaire, les teneurs de trois classes de composés ont été estimées : les protéines solubles, les chlorophyllles et les acides nucléiques.

plants de maïs [3] = assay: Growth of maize plants treated with the inhibitors (weights, water content); format: in vivo
Description: Des plants de maïs ont été traités pendant 10, 20 ou 30 jours par l'OHPAS et le NH2PAS à deux concentrations (80 et 160 µM).
Les .inhibiteurs sont ajoutés au milieu nutritif.
Les cultures sur vermiculite (20 plants) sont arrosées quotidiennement par 250 ml de milieu (avec ou sans inhibiteurs). Les semis constituent le temps 0 de la culture, l'addition des inhibiteurs au milieu nutritif est réalisée dès l'émergence de la partie aérienne (2 à 3 jours). Les différentes caractéristiques des plants sont estimées après 10, 20 ou 30 jours.
Le traitement par les deux inhibiteurs conduit à des plants de maïs dont les caractéristiques pondérales et les teneurs en eau sont données dans le tableau 4. L'analyse des résultats ne montre aucune différence significative entre les plants traités et les plants témoins. De même, les tailles et l'aspect morphologique des différents lots sont similaires. Toutefois, on constate que le port dressé des maïs est légèrement affecté.

[4] = tested on: fractions de xylème de peuplier; assay: Incorporation of cinnamic acid (14C3) into lignins by isolated poplar xylem fractions; format: cell-based; conditions: for Taux de radio-activité incorporé dans les lignines (%) / Radioactivité absorbée (µCi/essai) / Radioactivité incorporée dans les lignines (µCi/essai): 30 h; for Radioactivité absorbée (µCi/essai) / Radioactivité incorporée dans les lignines (µCi/essai): mean of 3; for inhibition at 200 µM / inhibition at 1000 µM: relative to % incorporated in the control = 100
Description: Les tissus de xylème isolés (300 mg par essai) sont mis en suspension dans des fioles d'erlenmeyer (25ml), bouchées par du coton cardé contenant : • - du tampon Tris/HCl, O,lM, pH 7,5 (qsp Sml) maintenant le pH entre 7 et 8, • - du Dextran T40 (25 g/1) utilisé comme agent osmotique, ne constituant pas une source de carbone pour la cellule végétale, • - du mercaptoéthanol (O,lmM), antioxydant qui empêche un brunissement très rapide des tissus, • - de l'éther monométhylique de l'éthylène glycol (EMMEG) (50 µl) ou des inhibiteurs solubilisés dans ce polyol (5^0 µ1), • - de l'acide cinnamique (^14C3) (2,5 µCi).
Les fioles sont palcées à 26°C, sous agitation orbitale (agitateur New Brunswick modèle G 10,100 rpm) et sous un éclairement de 4000 lux pendant 30 h. La radioactivité incorporée par les lignines est alors estimée à partir de "poudre alcool-benzène" obtenu par extraction à l'alcool-benzène des fractions tissulaires lyophilisées et réduites en poudre.
Afin de mesurer l'absorption de l'acide cinnamique par les fractions tissulaires et de corriger d'éventuelles différences d'absorption selon les essais, une fraction aliquote du milieu d'incubation (50 µl) est prélevée à différents temps et la radioactivité estimée au compteur à scintillation liquide.
La mesure de la radioactivité libérée sous forme de ^14CO2 après combustion totale des "poudres alcool-benzène" révèle qu'en présence du OHPAS ou du NH2PAS, on observe une baisse de la radioactivité retrouvée dans les lignines. Ainsi, ces inhibiteurs entraînent à la concentration de lmM, une inhibition de 40 à 70% de la synthèse des lignines radioactives. Ces résultats sont rapportés dans le tableau 3 ci-après : […]

plants de mais [5] = assay: Soluble phenolic compounds of treated maize plants; format: in vivo; conditions: plants âgés de 30 jours, 80 µM; for FLAVONOIDES / PHENOLS SIMPLES: mean of 3
Description: as §1
Le traitement des plants par les inhibiteurs ne modifie pas les teneurs en ces composés comme le montrent les résultats rapportés dans le tableau 6 ci-après. Cependant, on constate une baisse importante (40% avec l'OHPAS) des quantités de flavonoïdes.

[6] = 10 jours de culture, 160 µm en inhibiteurs
[7] = 10 jours de culture, concentration not given
[8] = 10 jours de culture, concentration not given, mean of 20 plants
[9] = 20 jours de culture, 160 µm en inhibiteurs
[10] = 20 jours de culture, concentration not given
[11] = 30 jours de culture, 160 µm en inhibiteurs
[12] = 30 jours de culture, concentration not given

Row | Compound | synthèse de la fraction polysaccharidique de la paroi (plants de maïs [1]) | % d'inhibition (teneur en lignines) (plants de luzerne; 25 µM) [%] | % d'inhibition (teneur en lignines) (plants de luzerne; 50 µM) [%] | ADN (mg/g PS) (plants de mais [2]) | ARN (mg/g PS) (plants de mais [2]) | Chlorophylles (mg/g PS) (plants de mais [2]) | Protéines solubles (mg/g PS) (plants de mais [2]) | Poids matériel frais g/plant (plants de maïs [3]; [6]) | Poids matériel sec g/plant (plants de maïs [3]; [6]) | Teneur en eau g/g de poids sec (plants de maïs [3]; [6]) | Poids matériel sec g/plant (plants de maïs [3]; [7]) | Teneur en eau g/g de poids sec (plants de maïs [3]; [7]) | Poids matériel frais g/plant (plants de maïs [3]; [8]) | Poids matériel frais g/plant (plants de maïs [3]; [9]) | Poids matériel sec g/plant (plants de maïs [3]; [9]) | Teneur en eau g/g de poids sec (plants de maïs [3]; [9]) | Poids matériel frais g/plant (plants de maïs [3]; [10]) | Poids matériel sec g/plant (plants de maïs [3]; [10]) | Teneur en eau g/g de poids sec (plants de maïs [3]; [10]) | Poids matériel frais g/plant (plants de maïs [3]; [11]) | other results
1 | CC(C)(C)OC(=O)C[S+]([O-])Nc1ccccc1O (centres unmarked) [composé 2, N-(o -hydroxy phényl)sulfinamoyl acétate de tertiobutyle] | n'apparaîssent pas affecter | 13 | 31 | 1,35 ± 0,6 mg/g PS | 21,08 ± 0,3 mg/g PS | 7,80 ± 0,3 mg/g PS | 49,50 ± 1 mg/g PS | 0,98 g/plant | 0,083 g/plant | 10,81 g/g de poids sec | 0,103 g/plant | 18,40 g/g de poids sec | 2,00 g/plant | 2,98 g/plant | 0,300 g/plant | 8,93 g/g de poids sec | 3,20 g/plant | 0,318 g/plant | 9,06 g/g de poids sec | 4,52 g/plant | Poids matériel sec g/plant (plants de maïs [3]; [11]): 0,429 g/plant; Teneur en eau g/g de poids sec (plants de maïs [3]; [11]): 9,53 g/g de poids sec; Poids matériel frais g/plant (plants de maïs [3]; [12]): 4,65 g/plant; Poids matériel sec g/plant (plants de maïs [3]; [12]): 0,420 g/plant; Teneur en eau g/g de poids sec (plants de maïs [3]; [12]): 10,07 g/g de poids sec; Taux de radio-activité incorporé dans les lignines (%) ([4]; 0,2mM): 24%; Radioactivité absorbée (µCi/essai) ([4]; 0,2mM): 0,75 µCi/essai; Radioactivité incorporée dans les lignines (µCi/essai) ([4]; 0,2mM): 0,18 µCi/essai; inhibition at 200 µM ([4]; 0,2mM): 17%; Taux de radio-activité incorporé dans les lignines (%) ([4]; 1mM): 10%; Radioactivité absorbée (µCi/essai) ([4]; 1mM): 0,75 µCi/essai; Radioactivité incorporée dans les lignines (µCi/essai) ([4]; 1mM): 0,075 µCi/essai; inhibition at 1000 µM ([4]; 1mM): 70%; % PERTE (phénols simples) (plants de mais [5]): 0%; % PERTE (flavonoïdes) (plants de mais [5]; listed as OHPAS): 40% and 42%; FLAVONOIDES (plants de mais [5]): 28 ± 11 mg d'acide gallique par g de matériel; PHENOLS SIMPLES (plants de mais [5]): 107 ± 8 mg d'acide gallique par g de matériel
2 | CC(C)(C)OC(=O)C[S+]([O-])Nc1ccccc1N (centres unmarked) [composé 5, N-(o-Amino phényl)Sulfinamoyl Acétate de tertiobutyle] | n'apparaîssent pas affecter | 20 | 17 | 1,38 ± 0,7 mg/g PS | 19,81 ± 0,2 mg/g PS | 7,69 ± 0,3 mg/g PS | 49,30 ± 2 mg/g PS | 1,00 g/plant | 0,088 g/plant | 13,36 g/g de poids sec | 0,108 g/plant | 15,70 g/g de poids sec | 1,80 g/plant | 3,25 g/plant | 0,321 g/plant | 9,12 g/g de poids sec | 3,00 g/plant | 0,298 g/plant | 9,07 g/g de poids sec | 4,80 g/plant | Poids matériel sec g/plant (plants de maïs [3]; [11]): 0,458 g/plant; Teneur en eau g/g de poids sec (plants de maïs [3]; [11]): 9,48 g/g de poids sec; Poids matériel frais g/plant (plants de maïs [3]; [12]): 4,40 g/plant; Poids matériel sec g/plant (plants de maïs [3]; [12]): 0,438 g/plant; Teneur en eau g/g de poids sec (plants de maïs [3]; [12]): 9,04 g/g de poids sec; Taux de radio-activité incorporé dans les lignines (%) ([4]; 0,2mM): 32%; Radioactivité absorbée (µCi/essai) ([4]; 0,2mM): 0,80 µCi/essai; Radioactivité incorporée dans les lignines (µCi/essai) ([4]; 0,2mM): 0,26 µCi/essai; inhibition at 200 µM ([4]; 0,2mM): 4%; Taux de radio-activité incorporé dans les lignines (%) ([4]; 1mM): 20%; Radioactivité absorbée (µCi/essai) ([4]; 1mM): 0,80 µCi/essai; Radioactivité incorporée dans les lignines (µCi/essai) ([4]; 1mM): 0,16 µCi/essai; inhibition at 1000 µM ([4]; 1mM): 40%; % PERTE (flavonoïdes) (plants de mais [5]): 48%; % PERTE (phénols simples) (plants de mais [5]): 0%; FLAVONOIDES (plants de mais [5]): 25 ± 14 mg d'acide gallique par g de matériel; PHENOLS SIMPLES (plants de mais [5]): 101 ± 10 mg d'acide gallique par g de matériel
